In ChEMBL document CHEMBL5365547, “Unleashing the Potential of 1,3-Diketone Analogues as Selective LH2 Inhibitors” (ACS Med Chem Lett, 2023):
The source made the active and inactive calls. The rule behind the calls is not given here.

Tests used:
344SQ = assay: Antiproliferative activity against mouse wild type 344SQ cells assessed as reduction in cell viability observed after 48 hrs by CCK-8 assay; type: functional, cell-based
[1] = biological target: T1, Procollagen-lysine,2-oxoglutarate 5-dioxygenase 2 (Homo sapiens, UniProt O00469); assay: Inhibition of human recombinant LH2 expressed in CHO cells incubated for 30 mins by luciferase-based Succinate-GloTM JmjC Demethylase/Hydroxylase Assay; type: cell-based
T1 sequence (O00469 whole entry): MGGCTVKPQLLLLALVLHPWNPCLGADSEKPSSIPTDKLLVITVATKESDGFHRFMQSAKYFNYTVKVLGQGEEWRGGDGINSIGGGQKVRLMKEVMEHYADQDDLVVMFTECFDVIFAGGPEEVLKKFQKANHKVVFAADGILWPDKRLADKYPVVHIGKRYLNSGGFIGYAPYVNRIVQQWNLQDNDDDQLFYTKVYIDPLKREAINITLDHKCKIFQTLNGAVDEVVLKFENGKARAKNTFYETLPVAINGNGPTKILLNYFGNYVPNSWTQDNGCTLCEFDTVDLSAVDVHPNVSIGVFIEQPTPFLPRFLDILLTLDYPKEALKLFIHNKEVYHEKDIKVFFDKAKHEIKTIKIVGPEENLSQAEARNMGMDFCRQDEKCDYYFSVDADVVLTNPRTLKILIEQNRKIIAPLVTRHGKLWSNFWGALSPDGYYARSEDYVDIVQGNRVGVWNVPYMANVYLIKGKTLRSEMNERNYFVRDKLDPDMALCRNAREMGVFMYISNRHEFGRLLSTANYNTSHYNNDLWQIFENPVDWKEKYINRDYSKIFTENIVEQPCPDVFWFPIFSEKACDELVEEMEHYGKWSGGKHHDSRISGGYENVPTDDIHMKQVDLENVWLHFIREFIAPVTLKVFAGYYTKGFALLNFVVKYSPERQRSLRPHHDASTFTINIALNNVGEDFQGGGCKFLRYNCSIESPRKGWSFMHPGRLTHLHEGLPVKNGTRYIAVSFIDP

Homo sapiens [2] = species: Homo sapiens; assay: Selectivity ratio of IC50 for inhibition of human recombinant LH3 to IC50 for inhibition of human recombinant LH2
[3] = biological target: T2, Procollagen-lysine,2-oxoglutarate 5-dioxygenase 1 (Homo sapiens, UniProt Q02809); assay: Inhibition of human recombinant LH1 expressed in CHO cells incubated for 30 mins by luciferase-based Succinate-GloTM JmjC Demethylase/Hydroxylase Assay; type: cell-based
T2 sequence (Q02809 whole entry): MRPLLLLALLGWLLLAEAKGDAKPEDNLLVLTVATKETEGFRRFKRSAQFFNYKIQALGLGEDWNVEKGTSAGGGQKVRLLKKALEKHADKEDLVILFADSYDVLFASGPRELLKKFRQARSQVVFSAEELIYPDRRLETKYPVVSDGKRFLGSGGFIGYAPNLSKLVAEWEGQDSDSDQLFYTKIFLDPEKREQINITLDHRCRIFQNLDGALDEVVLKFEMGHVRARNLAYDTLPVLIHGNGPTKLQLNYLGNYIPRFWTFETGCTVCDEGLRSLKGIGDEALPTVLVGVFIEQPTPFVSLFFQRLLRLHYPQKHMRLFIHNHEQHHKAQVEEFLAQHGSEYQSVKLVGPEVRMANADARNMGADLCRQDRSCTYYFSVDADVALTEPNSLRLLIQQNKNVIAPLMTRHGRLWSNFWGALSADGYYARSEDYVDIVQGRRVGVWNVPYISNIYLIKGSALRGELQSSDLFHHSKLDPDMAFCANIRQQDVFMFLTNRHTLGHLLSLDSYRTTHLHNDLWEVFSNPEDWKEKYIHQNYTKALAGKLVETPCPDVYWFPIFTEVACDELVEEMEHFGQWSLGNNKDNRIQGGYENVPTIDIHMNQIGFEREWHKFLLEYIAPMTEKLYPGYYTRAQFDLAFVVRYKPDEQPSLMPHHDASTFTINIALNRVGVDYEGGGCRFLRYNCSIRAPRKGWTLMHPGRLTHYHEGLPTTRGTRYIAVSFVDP

[4] = biological target: T3, Lysine-specific demethylase 4A (Homo sapiens) (UniProt O75164); assay: Inhibition of JMJD2A (unknown origin) at 11 uM by Succinate-Glo kit assay
T3 sequence (whole entry): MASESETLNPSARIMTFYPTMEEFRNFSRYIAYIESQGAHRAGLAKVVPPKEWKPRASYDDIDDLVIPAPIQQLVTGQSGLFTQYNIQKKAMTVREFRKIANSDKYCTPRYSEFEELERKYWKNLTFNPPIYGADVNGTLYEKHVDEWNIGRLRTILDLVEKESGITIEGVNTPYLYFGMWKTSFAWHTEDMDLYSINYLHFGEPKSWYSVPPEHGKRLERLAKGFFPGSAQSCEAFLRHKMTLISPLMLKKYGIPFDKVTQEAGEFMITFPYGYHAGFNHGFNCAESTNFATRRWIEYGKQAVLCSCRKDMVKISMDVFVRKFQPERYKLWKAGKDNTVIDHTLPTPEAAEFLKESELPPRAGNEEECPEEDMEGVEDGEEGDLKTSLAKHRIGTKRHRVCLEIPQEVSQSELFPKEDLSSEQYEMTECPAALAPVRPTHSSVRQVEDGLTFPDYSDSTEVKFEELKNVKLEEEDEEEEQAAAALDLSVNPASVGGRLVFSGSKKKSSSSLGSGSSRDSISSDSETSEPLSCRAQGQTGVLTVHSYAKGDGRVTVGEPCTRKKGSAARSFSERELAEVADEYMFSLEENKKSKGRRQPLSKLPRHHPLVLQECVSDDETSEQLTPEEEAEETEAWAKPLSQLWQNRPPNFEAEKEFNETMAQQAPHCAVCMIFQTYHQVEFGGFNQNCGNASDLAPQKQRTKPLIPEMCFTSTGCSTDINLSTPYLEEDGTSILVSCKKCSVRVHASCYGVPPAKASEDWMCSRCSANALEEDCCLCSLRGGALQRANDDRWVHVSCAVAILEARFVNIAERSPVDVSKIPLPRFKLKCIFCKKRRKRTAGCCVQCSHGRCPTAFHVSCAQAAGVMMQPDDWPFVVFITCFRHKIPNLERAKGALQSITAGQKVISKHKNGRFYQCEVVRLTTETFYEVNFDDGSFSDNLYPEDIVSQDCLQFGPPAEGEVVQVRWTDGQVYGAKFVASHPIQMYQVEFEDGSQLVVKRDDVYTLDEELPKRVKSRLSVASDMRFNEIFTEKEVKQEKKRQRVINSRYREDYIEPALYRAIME

Homo sapiens [5] = species: Homo sapiens; assay: Selectivity ratio of IC50 for inhibition of human recombinant LH1 to IC50 for inhibition of human recombinant LH2; details: time 30.0 min
[6] = biological target: T4, Multifunctional procollagen lysine hydroxylase and glycosyltransferase LH3 (Homo sapiens, UniProt O60568); assay: Inhibition of human recombinant LH3 expressed in CHO cells incubated for 30 mins by luciferase-based Succinate-GloTM JmjC Demethylase/Hydroxylase Assay; type: cell-based
T4 sequence (O60568 whole entry): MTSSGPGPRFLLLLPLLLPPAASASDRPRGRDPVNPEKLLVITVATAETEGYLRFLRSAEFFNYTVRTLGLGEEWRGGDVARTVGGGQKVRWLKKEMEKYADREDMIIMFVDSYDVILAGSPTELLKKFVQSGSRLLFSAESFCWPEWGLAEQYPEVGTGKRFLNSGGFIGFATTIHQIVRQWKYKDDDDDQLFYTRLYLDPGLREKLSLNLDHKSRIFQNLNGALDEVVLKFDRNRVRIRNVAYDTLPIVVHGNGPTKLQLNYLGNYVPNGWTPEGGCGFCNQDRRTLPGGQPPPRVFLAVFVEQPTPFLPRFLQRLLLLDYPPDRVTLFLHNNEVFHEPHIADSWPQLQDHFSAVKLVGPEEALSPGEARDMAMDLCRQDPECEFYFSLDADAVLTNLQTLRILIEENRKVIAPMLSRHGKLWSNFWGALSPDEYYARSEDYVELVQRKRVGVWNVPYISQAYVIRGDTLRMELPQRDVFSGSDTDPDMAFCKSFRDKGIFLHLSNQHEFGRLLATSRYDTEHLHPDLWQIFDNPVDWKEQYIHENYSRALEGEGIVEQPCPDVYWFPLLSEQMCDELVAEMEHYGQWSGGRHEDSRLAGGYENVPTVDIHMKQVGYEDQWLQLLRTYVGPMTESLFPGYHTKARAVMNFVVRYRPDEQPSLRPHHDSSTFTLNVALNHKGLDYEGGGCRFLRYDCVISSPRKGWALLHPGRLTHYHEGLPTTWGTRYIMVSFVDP

| Structure (SMILES) | IC50 ([1]; read-out: IC50) [µM] | also measured |
| --- | --- | --- |
| CN1CCN(c2cccc(C(=O)CC(=O)c3ccncc3)c2)CC1 | – | Activity (344SQ): inactive |
| O=C(CC(=O)c1cccnc1)c1ccc([N+](=O)[O-])cc1 | > 10 | – |
| Cc1ccc(C(=O)CC(=O)c2cccc(N3CCOCC3)c2)cc1 | – | IC50 ([1]; cho): Not Active |
| O=C(CC(=O)c1nnn[nH]1)c1cccc(N2CCOCC2)c1 | > 10 | – |
| O=C(c1cccnc1)C1CCc2cc(Cl)ccc2C1=O (stereo not drawn) | – | IC50 ([1]; cho): Not Active |
| c1cc(-c2cc(-c3ccncc3)n[nH]2)cc(N2CCOCC2)c1 | > 10 | – |
| CN1CCN(c2cccc(C(=O)CC(=O)c3nnn[nH]3)c2)CC1 | > 10 | – |
| O=C(CC(=O)c1cccnc1)c1ccc(C(F)(F)F)cc1 | – | IC50 ([1]; cho): Not Active |
| CN1CCN(c2cccc(-c3cc(-c4ccncc4)n[nH]3)c2)CC1 | > 10 | – |
| O=C(CC(=O)c1cccnc1)c1ccccc1 | 5 | – |
| O=C(CC(=O)C(F)(F)F)c1ccc([N+](=O)[O-])cc1 | > 10 | – |
| O=C(c1cccnc1)C1CCc2cc(F)ccc2C1=O (stereo not drawn) | > 10 | – |
| O=C(CC(=O)c1ccncc1)c1ccccc1 | 1 | Selectivity ratio (Homo sapiens [2]): 5; IC50 [3]: 6.4 µM; inhibition [4]: Active; Selectivity ratio (Homo sapiens [5]): 6; IC50 [6]: 5.2 µM |
